Values quoted from earlier work in US20210379028A1, “TREATMENT OF DEPRESSIVE DISORDERS” (Ovid Therapeutics Inc., priority 2017, published 2021).

How the values were obtained:
[1] = patients with a history of drug abuse who received gaboxadol
[2] = patients with severe major depressive disorder, combined with escitalopram
[3] = three-month efficacy study, treatment of insomnia

**Q.** For Oc1noc2c1CCNC2 [gaboxadol, 4,5,6,7-tetrahydroisoxazolo [5,4-c] pyridine-3-ol], which psychiatric adverse events [1] is on record?
**A.** steep increase

**Q.** What about the “benefit of combining gaboxadol with escitalopram over escitalopram alone” value [2] of the same molecule?
**A.** no additional benefit

**Q.** And the “effects in sleep onset and sleep maintenance” value [3]?
**A.** failed to show significant effects
